Measurements taken from ChEMBL document CHEMBL1142251, “Identification of novel inhibitors of bacterial surface enzyme Staphylococcus aureus Sortase A” (Bioorg Med Chem Lett, 2008).

What follows are compounds tested against T1, Sortase A (Staphylococcus aureus, UniProt Q9S446) (assay: Inhibition of Staphylococcus aures sortase A by FRET assay).
T1 sequence (Q9S446 whole entry): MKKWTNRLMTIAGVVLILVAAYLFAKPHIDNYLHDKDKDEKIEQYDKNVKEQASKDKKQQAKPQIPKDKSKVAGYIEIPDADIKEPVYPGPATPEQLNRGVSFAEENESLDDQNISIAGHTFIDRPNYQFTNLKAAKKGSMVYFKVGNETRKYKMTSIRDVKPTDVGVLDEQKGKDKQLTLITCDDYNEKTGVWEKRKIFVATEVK

With `CS(=O)(=NC=C(C#N)C(=O)c1ccco1)c1ccc(Oc2ccc([N+](=O)[O-])cn2)cc1` (stereo not given) as the compound, how does the IC50 read?
The IC50 was 150 µM.

How did the IC50 turn out when `CS(=O)(=NC=C(C#N)C(=O)c1cccs1)c1ccc(Oc2ccc([N+](=O)[O-])cn2)cc1` (stereo not given) was run?
Its IC50 is 400 µM.

`N#Cc1c(SCC(=O)c2ccc([N+](=O)[O-])cc2)[n-][s+]c1SCC(=O)c1ccc([N+](=O)[O-])cc1` was tested. Which IC50 did it give?
Its IC50 is 97.3 µM.

How did the IC50 turn out when `O=C(/C=C/c1cccs1)Nc1ccc(N2CCOCC2)c(C(=O)O)c1` was run?
Its IC50 is 75 µM.

With `COC(=O)c1cc(NC(=O)/C=C/c2cccs2)ccc1N1CCOCC1` as the compound, how does the IC50 read?
The IC50 was 71 µM.

How did the IC50 turn out when `Cc1ccc(S(=O)(=O)NC(=O)Nc2ccc(NC(=O)c3ccccc3O)cc2)cc1` was run?
Its IC50 is 226 µM.

How did the IC50 turn out when `O=C(/C=C/c1ccco1)Nc1ccc(N2CCOCC2)c(CO)c1` was run?
The IC50 was 111 µM.

How did the IC50 turn out when `COC(=O)c1cc(NC(=O)CCc2cccs2)ccc1N1CCOCC1` was run?
Its IC50 is > 600 µM.

How did the IC50 turn out when `O=Cc1cc(NC(=O)/C=C/c2ccco2)ccc1N1CCOCC1` was run?
The IC50 was 107 µM.

`NC(=O)c1cc(NC(=O)/C=C/c2cccs2)ccc1N1CCOCC1` was tested. Which IC50 did it give?
The IC50 was 105 µM.

For `O=Cc1cc(NC(=O)/C=C/c2cccs2)ccc1N1CCOCC1`, which IC50 is on record?
Its IC50 is 77 µM.

Which IC50 does the source give for `O=C(/C=C/c1ccco1)Nc1ccc(N2CCOCC2)c(C(=O)O)c1` here?
Its IC50 is 181 µM.

Which IC50 does the source give for `O=C(CCc1ccco1)Nc1ccc(N2CCOCC2)c(C(=O)O)c1` here?
The IC50 was > 600 µM.

`COC(=O)c1cc(NC(=O)/C=C/c2ccco2)ccc1N1CCOCC1` was tested. Which IC50 did it give?
Its IC50 is 58 µM.

`O=C(CCc1cccs1)Nc1ccc(N2CCOCC2)c(C(=O)O)c1` was tested. Which IC50 did it give?
Its IC50 is > 600 µM.

Which IC50 does the source give for `N=C(N)N/N=C/c1ccc(/C=N/NC(=N)N)cc1` here?
Its IC50 is 275 µM.

With `O=C(/C=C/c1cccs1)Nc1ccc(N2CCOCC2)c(CO)c1` as the compound, how does the IC50 read?
The IC50 was 73 µM.

Which IC50 does the source give for `COC(=O)c1cc(NC(=O)CCc2ccco2)ccc1N1CCOCC1` here?
Its IC50 is > 600 µM.

Which IC50 does the source give for `Nc1nccc(-c2ccc(NC(=O)Nc3ccc(Cl)cc3)cc2)n1` here?
Its IC50 is 400 µM.

For `O=C(O)/C=C/C(=O)Nc1ccc(NC(=O)c2ccccc2O)cc1`, which IC50 is on record?
The IC50 was 125 µM.
